Experiments:
KCNQ2/3 channels = biological target: T1, KCNQ2/3 channels (Homo sapiens, UniProt O43525+O43526); assay: Fluorescence assay using a voltage sensitive dye (fluorimetry); assay type: cell-based; conditions: CHO-K1 cells expressing KCNQ2/3; for Emax: CHO-K1, plateau effect relative to saturated retigabine (50 μM) = 100%, negative values = antagonistic, read-out: Fluorimetry % efficacy (retigabine = 100%); for EC50: IC50 where % efficacy is negative, read-out: Fluorimetry EC50/IC50
T1 construct: expressed in transfected cells

rat = assay: Low-intensity tail flick test (rat); assay type: in vivo; conditions: po, peroral, MPE = % of maximum possible effect
Experimental: Method II. Low-Intensity Tail Flick Test (Rat)
In the low-intensity tail flick test, the determination of the antinociceptive effect of the compounds according to the invention towards an acute noxious thermal stimulus is carried out by measuring the withdrawal reflex of the rat tail (tail flick) in response to a radiant heat beam (analgesia meter; model 2011 of the company Rhema Labortechnik, Hofheim, Germany) according to the method described by D'Amour and Smith (J. Pharm. Exp. Ther. 72, 74 79 (1941). To this end, the rats were placed in a plexiglass restrainer, and a low-intensity radiant heat beam (48° C.) was focused onto the dorsal surface of the tail root. The stimulus intensity was adjusted to result in a mean pre-drug control withdrawal latency of about 7 s, thus also allowing a supraspinal modulation of the spinally mediated acute nociceptive reflex. A cutoff time of 30 s was applied to avoid tissue damage. Male Sprague-Dawley rats (Janvier, Le Genest St. Isle, Frankreich) with weights of 200-250 g were used. 10 rats were used per group. Before administration of a compound according to the invention, the animals were pre-tested twice in the course of five minutes and the mean of these measurements was calculated as the pre-test mean. The antinociceptive effect was determined at 20, 40 and 60 min after peroral compound administration. The antinociceptive effect was calculated based on the increase in the tail withdrawal latency according to the following formula and is expressed as percentage of the maximum possible effect (MPE [%]): MPE=[(T1−T0)/(T2−T0)]*100
In this, T0 is the control latency time before and T1 the latency time after administration of the compound, T2 is the cutoff time and MPE is the maximum possible effect. Employing variant analysis (repeated measures ANOVA) allowed testing of statistically significant differences between the compounds according to the invention and the vehicle group. The significance level was set to p≦0.05. To determine the dose dependency, the particular compound according to the invention was administered in 3-5 logarithmically increasing doses, including a threshold dose and a maximum effective dose, and the ED50 values were determined with the aid of regression analysis. The ED50 calculation was performed at the time of maximum efficacy (usually 20 min after administration of the compounds).

T1 sequence (O43526 whole entry): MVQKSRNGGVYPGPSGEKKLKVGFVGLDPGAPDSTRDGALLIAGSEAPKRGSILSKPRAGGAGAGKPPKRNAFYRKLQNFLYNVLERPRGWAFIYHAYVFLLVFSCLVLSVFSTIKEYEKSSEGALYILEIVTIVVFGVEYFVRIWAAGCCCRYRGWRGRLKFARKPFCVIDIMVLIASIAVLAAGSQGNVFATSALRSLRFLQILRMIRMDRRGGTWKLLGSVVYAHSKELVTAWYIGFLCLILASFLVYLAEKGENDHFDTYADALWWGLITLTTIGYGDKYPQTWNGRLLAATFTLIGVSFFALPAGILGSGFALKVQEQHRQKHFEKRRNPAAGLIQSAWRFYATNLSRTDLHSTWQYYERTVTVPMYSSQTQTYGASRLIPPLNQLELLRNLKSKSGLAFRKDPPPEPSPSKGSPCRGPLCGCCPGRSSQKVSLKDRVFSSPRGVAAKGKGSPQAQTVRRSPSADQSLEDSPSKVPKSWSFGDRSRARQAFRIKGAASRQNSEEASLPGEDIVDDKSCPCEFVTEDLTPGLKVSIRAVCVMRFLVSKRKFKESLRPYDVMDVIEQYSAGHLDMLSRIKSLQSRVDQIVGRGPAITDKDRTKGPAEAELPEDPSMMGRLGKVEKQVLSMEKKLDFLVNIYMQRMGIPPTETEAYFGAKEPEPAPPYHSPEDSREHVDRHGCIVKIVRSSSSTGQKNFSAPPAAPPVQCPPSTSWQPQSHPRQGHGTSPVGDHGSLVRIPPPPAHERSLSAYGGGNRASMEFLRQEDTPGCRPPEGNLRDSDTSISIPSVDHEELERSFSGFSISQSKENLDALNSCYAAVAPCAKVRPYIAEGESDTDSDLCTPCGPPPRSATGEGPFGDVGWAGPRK
T1 sequence (O43525 whole entry): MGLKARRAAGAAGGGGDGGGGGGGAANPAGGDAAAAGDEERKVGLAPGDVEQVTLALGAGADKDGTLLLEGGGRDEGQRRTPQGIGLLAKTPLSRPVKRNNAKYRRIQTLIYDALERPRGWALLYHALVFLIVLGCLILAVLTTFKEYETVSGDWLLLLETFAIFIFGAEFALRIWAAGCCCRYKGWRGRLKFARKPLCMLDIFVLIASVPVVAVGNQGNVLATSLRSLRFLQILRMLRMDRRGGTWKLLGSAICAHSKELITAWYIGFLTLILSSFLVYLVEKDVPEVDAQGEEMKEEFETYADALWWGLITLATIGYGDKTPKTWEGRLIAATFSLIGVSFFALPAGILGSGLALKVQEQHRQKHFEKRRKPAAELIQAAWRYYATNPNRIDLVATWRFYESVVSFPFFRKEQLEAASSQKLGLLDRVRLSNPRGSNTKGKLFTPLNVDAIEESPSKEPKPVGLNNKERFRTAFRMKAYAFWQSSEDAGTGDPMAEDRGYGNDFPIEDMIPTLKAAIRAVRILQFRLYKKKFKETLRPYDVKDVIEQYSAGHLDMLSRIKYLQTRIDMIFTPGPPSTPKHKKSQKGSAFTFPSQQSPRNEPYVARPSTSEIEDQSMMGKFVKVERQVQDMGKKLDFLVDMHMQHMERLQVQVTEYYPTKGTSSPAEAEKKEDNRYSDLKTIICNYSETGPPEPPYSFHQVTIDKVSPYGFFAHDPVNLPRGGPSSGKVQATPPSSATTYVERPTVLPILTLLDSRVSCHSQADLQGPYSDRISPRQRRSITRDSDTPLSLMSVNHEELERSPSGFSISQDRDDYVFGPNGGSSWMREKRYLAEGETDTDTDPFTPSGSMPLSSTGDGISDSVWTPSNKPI

`CCSc1nc(N2CCOCC2)cc(C)c1C(=O)NCc1ccc(F)c(F)c1` [Example 41, N-[(3,4-Difluoro-phenyl)-methyl]-2-ethylsulfanyl-4-methyl-6-morpholin-4-yl-pyridine-3-carboxylic acid amide] showed an Emax (KCNQ2/3 channels) of 169%, an EC50 (KCNQ2/3 channels) of 69 nM and an inhibition in vivo at 6.81 mg/kg (rat; dose 6.81 mg/kg) of 92%.
In the case of `CCSc1nc(N2CCOCC2)cc(C)c1C(=O)NCCCC(C)(C)C` [Example 67, N-(4,4-Dimethyl-pentyl)-2-ethylsulfanyl-4-methyl-6-morpholin-4-yl-pyridine-3-carboxylic acid amide], the Emax (KCNQ2/3 channels) is reported as 244%, the EC50 (KCNQ2/3 channels) is reported as 42 nM and the inhibition in vivo at 10 mg/kg (rat) is reported as 100%.
For `CCSc1nc(N2CCOCC2)cc(C)c1C(=O)NCCCC(C)C` [Example 79, 2-Ethylsulfanyl-4-methyl-N-(4-methyl-pentyl)-6-morpholin-4-yl-pyridine-3-carboxylic acid amide], the Emax (KCNQ2/3 channels) was 215%, the EC50 (KCNQ2/3 channels) was 206 nM and the inhibition in vivo at 10 mg/kg (rat) was 46%.

— patent US9168259B2 (GRÜNENTHAL GMBH, priority 2010, dated 2015)
